For one assay, the system named is ET-1 stimulated HRMC. Description: Hallmark gene set enrichment in ET-1 stimulated HRMC treated with atrasentan. The assay is classed as cell-based, human. Conditions: atrasentan at 1 nM and 25 nM.
Assay [1] relates to canonical signaling pathways in kidney tissue of g-ddY mice. The assay can be described thus: Ingenuity Pathway Analysis (IPA) of canonical pathways, g-ddY kidney RNA-seq. Conditions: 30 mg/kg/day. The assay is classed as in vivo, mouse.
For assay [2], the system named is IL-6 production in primary human renal mesangial cells (HRMCs). Description: ET-1 induced IL-6 production in HRMCs (ELISA). The note with it: for pIC50: Homo sapiens, Mesangial cell, read-out: IC50, ET-1 stimulated IL-6 production. It is filed as cell-based.
Assay [3] concerns primary human renal mesangial cells (HRMCs). The assay can be described thus: Proliferation (BrdU) of HRMCs stimulated with IgA-containing immune complexes from IgAN patients. It is filed as cell-based. Conditions: HRMCs treated with IgA containing serum fractions from healthy controls.
The subject of assay [4] is gene expression in kidney tissue of g-ddY mice. Description: RNA-seq differential gene expression in kidney tissue of g-ddY mice (edgeR). It is filed as in vivo, mouse. How it is done:
RNA isolation and sequencing libraries were generated using standard protocols. Sequencing was performed using an Illumina NextSeq500 using manufacturer's instructions with a read length of 75 bp and a read depth of 30 million. Raw data was assembled to FASTQ files. Following QC analysis, high quality sequencing reads (e.g., reads with a Phred quality score >36) were aligned to the mouse reference genome (GRCm38-mm10) using the default parameters of the align algorithm and transcript count tables of each library was generated using the default parameters of the featureCounts algorithm of the RSubread package (Liao […], Shi W, 2019). High quality sequencing reads mapped to 27,129 genes. Following additional QC of low count filtering (i.e. transcripts <10 counts across all samples), 16,207 genes were identified and used for further analysis. The remaining sequencing read counts of the included 16,207 genes were normalized to library size, log-transformed, and were quantified as counts per million (CPM). Select RNA-seq counts were validated using qPCR. Sequencing read counts (CPM) were used for identification of differential gene expression between specified populations using the quasi-likelihood methodology of the edgeR package. […] MA plots were generated using edgeR. Heatmaps and other plots were generated using the gplots and ggplot2 package.

In the next assay the test system is g-ddY mice. Description: UACR (albuminuria) in g-ddY mouse model of IgA nephropathy. It is filed as in vivo. Conditions: approximately 5 days. The source says:
The grouped ddY (g-ddY) mouse is a spontaneous model of early-onset IgA nephropathy characterized by IgA immune complex deposition in the mesangium of the kidney, leading to significant proteinuria, glomerular hypercellularity, mesangioproliferative glomerular lesions, glomerular sclerosis and reduced kidney function, all hallmarks of human IgA nephropathy (J Am Soc Nephrol 23: 1364-1374, 2012). Consistent with human IgA nephropathy, the mesangial IgA deposits in the g-ddY mouse are also accompanied by deposition of IgG and complement C3.

For assay [5], the system named is hallmark gene sets in kidney tissue of g-ddY mice. The assay can be described thus: Gene Set Enrichment Analysis (GSEA) of hallmark gene sets, g-ddY kidney RNA-seq. It is filed as in vivo, mouse.

pIC50: −log10 of the molar value. “Also recorded” adds a separate entry of the source. Where two headings read alike, the source gives them in different places. Positions of bridges follow the written chain, without caps; N, C: chain ends. No end group written: not given here. Some results are limits rather than exact numbers.

The term pIC50 denotes the negative decadic logarithm of the IC50, by convention in mol/L.

As to `CCCCN(CCCC)C(=O)CN1C[C@H](c2ccc3c(c2)OCO3)[C@@H](C(=O)O)[C@@H]1c1ccc(OC)cc1` [atrasentan, (2R,3R,4S)-4-(1,3-benzodioxol-5-yl)-1-[2-(dibutylamino)-2-oxoethyl]-2-(4-methoxyphenyl)pyrrolidine-3-carboxylic acid], the “enrichment of hallmark gene sets” value in the assay on ET-1 stimulated HRMC is “under-expression of hallmark gene sets”. For the same compound, the NF-κB signaling entry in assay [1] is “reduced NF-κB signaling”. Also, in assay [1], the PDGF signaling result is reported as “reduced PDGF signaling”. The pIC50 in assay [2] (48 h, 10 ng/mL ET-1, 48 hours) is about 9.00; in assay [2] (72 h, 10 ng/mL ET-1, 72 hours), about 9.00. The basal cell proliferation entry in assay [3] is listed as “had no effect on basal cell proliferation”. For the same compound, the “differentially expressed genes of the ET1 gene signature” value was “Ccnd1, Ppara, Agt, Map2k2 and Hoxa9 were upregulated while Grk5, Mllt3, Klf2, Pparg, Hgf, Edn1, Fos, Ptgs2, and IL-1b were downregulated” in assay [4] (10 mg/kg/day vs untreated control); “Ccdn1, Cat, Ppara, Map2k2, Hoxa9, Agt, and Egfr were upregulated while Nfatc1, Grk5, Klf2, Cav1, Pparg, Itga5, Myc, Ednra, Sell, Hgf, Mmp2, Edn1, Syk, Fos, and IL-1b were downregulated” in assay [4] (20 mg/kg/day vs untreated control); “upregulated genes Ccnd1, Agt, Cat, Map2k2, Hoxa9, and Ppara and downregulated genes Ednrb, Myc, Mllt3, Hdac7, Ednra, Itga5, Grk5, Pparg, Klf2, Hgf, Mmp2, Sell, Sphk1, Fos, Syk, Edn1, and IL-1b” in assay [4] (30 mg/kg/day vs untreated control). The “Ednra and Ednrb gene expression” value in assay [4] (30 mg/kg/day) is “downregulated”. Further, the “ET1 (End1) gene expression” value in assay [4] (all three doses (10, 20, 30 mg/kg/day)) is on record as “downregulated”. Further, the “reduction of UACR from baseline” value in the assay on g-ddY mice (20 mg/kg/day in drinking water) and in the assay with g-ddY mice (30 mg/kg/day in drinking water) was over 60% in each case. In addition, the “albuminuria compared to baseline (paired t-test)” value in the assay on g-ddY mice (20 mg/kg/day) is recorded as “reduced from baseline to a similar extent”; with g-ddY mice (30 mg/kg/day), “reduced albuminuria from baseline”. Also, the “effect on UACR compared to control group (un-paired t-test)” value with g-ddY mice (20 mg/kg/day) and in the assay on g-ddY mice (30 mg/kg/day) was “statistically significant compared to the control group; also recorded: significantly reduced albuminuria” each time. The IL-6 signaling result in assay [5] (30 mg/kg/day) is “reduced IL-6 signaling”. For the same compound, in assay [5] (30 mg/kg/day), the “cell proliferation associated signaling (mitotic spindle and G2M checkpoint)” value is “reduced cell proliferation associated signaling”. Moreover, the inflammatory response signaling entry in assay [5] (30 mg/kg/day) is listed as “reduced inflammatory response signaling”. For the same compound, the “NES of hallmark signaling pathways (TNFα signaling via NF-κB, epithelial mesenchymal transition, inflammatory response, IL6-JAK-STAT3 signaling, mitotic spindle, G2M checkpoint)” value in assay [5] (10, 20, and 30 mg/kg/day, adjusted p-value <0.05) is under −1.5.
As for “ET-1: endothelin 1 (ET-1), used at 10 ng/mL to stimulate primary human mesangial cells (CSCSSLMDKECVYFCHLDIIW; disulfide 1-15, 3-11; ends not checked; UniProt P05305 53-73, looked up)”, the results for the “increase in IL-6 production” value in assay [2] (HRMCs exposed to ET-1 over 48 hours) and in assay [2] (HRMCs exposed to ET-1 over 72 hours) were about 6 fold and about 2.2 fold, respectively.
